Reference: patent publication US7078499B2, “Nucleotide analogues comprising a reporter moiety and a polymerase enzyme blocking moiety” (GE Healthcare UK Limited, priority 2000, dated 2006)

Legend:
Format in all cases: biochemical
delta Tts DNA polymerase = assay: Thermostable polymerase under reverse transcription conditions, delta Tts; design: key to result of incorporation (termination / further chain extension): T: Incorporation results in termination; E: Incorporation permits further chain extension; T/E: Predominant product is primer extended by one base, but evidence of some further extension also observed; key to primer extended by at least one base within assay time (grade): −: No extension within assay time; +/−: up to 25% of primer extended by at least one base within assay time; +: up to 50% of primer extended by at least one base within assay time; ++: up to 75% of primer extended by at least one base within assay time; +++: essentially all primer extended by at least one base within assay time; details: RNA template, 2.5 mM Manganese ions; for primer extended by at least one base within assay time (grade): Tth reaction buffer
Protocol: (§1) DNA polymerase assays were performed using Sequence 1 as primer and Sequence 2 as template. • Sequence 1 5′[Cy3]TAACTCATTAACAGGATC 3′ • Sequence 2 5′AT TCGCGGTATTCTGGTATGAAGCTTTTAGATCCTGTTAATGAGTTA GTA3′
(§2) The template (Sequence 2) was designed such that the base (underlined) immediately adjacent to the 3′ end of the hybridised primer is complementary to the nucleotide test compound. Nucleotide test compounds were compounds (6) (4′-C-(glycylaminomethyl)thymidine triphosphate), (8) (4′-C-(N-trifluoroacetyaminomethyl)thymidine triphosphate) and (9) (4′-C-(aminomethyl)thymidine triphosphate) as described above.
(§3) Primer extension reactions were performed using the above primers in the presence of 40 to 80 μM of nucleotide triphosphates. Positive control reactions contained all four native nucleotide triphosphates. For the other reactions the TTP was replaced with either a 2:1 ratio of […] for the terminator control, or entirely by the test compound The enzymes were used at a final concentration of 0.175 units/μl and a magnesium ion concentration of 2.5 mM in buffers supplied by the manufacturer. The primer and template concentrations were 0.5 pmol/μl and 2 pmol/μl respectively.
(§4) Extension reactions with thermophilic enzymes were performed by initially denaturing the fully assembled reactions at 70° C. for 5 min. followed by 45° C. for 20–40 minutes. The following enzymes were used: Taq DNA polymerase (Taq); Thermosequenase (TS); Thermosequenase II (TSII); Thermosequenase E (TSE), Tfl DNA polymerase (Tfl); Tth DNA polymerase (Tth), deltaTts DNA polymerase (deltaTts), deltaTts D DNA polymerase (dettaTTSD) (all from APBiotech); Pfu DNA polymerase (Pfu) (Stratagene Ltd); Vent™ DNA polymerase (Vent) (New England Biolabs).
(§5) Reverse transcriptase reactions were performed essentially as described above for thermophilic and mesophilic enzymes. The template for these reactions was the RNA equivalent of sequence 2. All the thermophilic enzymes were assayed in Tth reaction buffer (Cambio Ltd, Cambridge UK) containing 2.5 mM Manganese ions. The following enzymes were used: Thermosequenase (TS1); Thermosequenase II (TSII); delta Tts DNA polymerase (deltaTts); delta Tts D DNA polymerase (deltaTtsD) (all from APBiotech); Retrotherm reverse transcriptase (Retroth) (Cambio Ltd); Tth DNA polymerase (Tth) (Cambio Ltd.).
(§6) The reactions were stopped by adding a 0.5 volume aliquot of 80% formamide containing 0.1% (w/v) bromophenol blue and 0.1% (w/v) cresol blue. The reaction products were separated by denaturing gel electrophoresis at a constant power of 45 W on 16% polyacrylamide gels containing 50% urea.
(§7) Gels were scanned for Cy3 fluorescence on a Molecular Dynamics Fluorimager and the data analysed using Molecular Dynamics ImageQuant 5 software.
(§8) The incorporation of a test nucleotide triphosphate results in the appearance on a polyacrylamide gel of a single band corresponding to a single base extension product. If, however, the enzyme adds additional bases then further bands would be observed that corresponded to either the full-length product or positions of other complementary bases in the template.

MuLV RT = molecular target: T1, MuLV RT (Moloney murine leukemia virus, UniProt P03355); assay: Mesophilic reverse transcriptase reaction, MuLV RT; design: key to result of incorporation (termination / further chain extension): T: Incorporation results in termination; E: Incorporation permits further chain extension; T/E: Predominant product is primer extended by one base, but evidence of some further extension also observed; details: RNA template, final enzyme concentration of 4 units/μl
T1 construct: MuLv Reverse transcriptase or HIV reverse transcriptase; purchased APBiotech
Protocol: as §1, §2, §3
(§9) Extension reactions preformed with mesophilic polymerases were carried out by mixing all the components of the reaction except the enzyme and heating to 70° C. for 5 min. After the reactions had cooled to room temperature 0.175 units of the enzyme were added and the reactions heated to 37° C. for 20–40 minutes. The following enzymes were used: T7 DNA polymerase (T7); Sequenase 2™ (Seq); Klenow fragment of DNA polymerase 1 (Klen); phi-29 DNA polymerase (Phi-29); T4 DNA polymerase (T4) (all from AP Biotech) and Bst DNA polymerase (Bst) (Cambio Ltd).
as §5
(§10) Mesophilic reverse transcriptases (AMV RT; MuLV RT; SAV RT and HIV RT all from APBiotech) were assayed in their respective buffers with a final enzyme concentration of 4 units/μl.
as §6, §7, §8

Tth DNA polymerase = molecular target: T2, Tth DNA polymerase (Thermus thermophilus, UniProt P52028); assay: Thermostable DNA polymerase primer extension, Tth; design: key to result of incorporation (termination / further chain extension): T: Incorporation results in termination; E: Incorporation permits further chain extension; T/E: Predominant product is primer extended by one base, but evidence of some further extension also observed; details: DNA template, 45° C. for 20–40 minutes; for primer extended by at least one base within assay time (grade): TTP replaced entirely by test compound
T2 construct: purchased APBiotech
Protocol: as §1, §2, §3, §4, §6, §7, §8

SAV RT = assay: Mesophilic reverse transcriptase reaction, SAV RT; design: key to result of incorporation (termination / further chain extension): T: Incorporation results in termination; E: Incorporation permits further chain extension; T/E: Predominant product is primer extended by one base, but evidence of some further extension also observed; details: RNA template, final enzyme concentration of 4 units/μl
Protocol: as §1, §2, §3, §9, §5, §10, §6, §7, §8

Thermosequenase E = assay: Thermostable DNA polymerase primer extension, TSE; design: key to result of incorporation (termination / further chain extension): T: Incorporation results in termination; E: Incorporation permits further chain extension; T/E: Predominant product is primer extended by one base, but evidence of some further extension also observed; details: DNA template, 45° C. for 20–40 minutes; for primer extended by at least one base within assay time (grade): TTP replaced entirely by test compound
Protocol: as §1, §2, §3, §4, §6, §7, §8

T2 sequence (P52028 whole entry): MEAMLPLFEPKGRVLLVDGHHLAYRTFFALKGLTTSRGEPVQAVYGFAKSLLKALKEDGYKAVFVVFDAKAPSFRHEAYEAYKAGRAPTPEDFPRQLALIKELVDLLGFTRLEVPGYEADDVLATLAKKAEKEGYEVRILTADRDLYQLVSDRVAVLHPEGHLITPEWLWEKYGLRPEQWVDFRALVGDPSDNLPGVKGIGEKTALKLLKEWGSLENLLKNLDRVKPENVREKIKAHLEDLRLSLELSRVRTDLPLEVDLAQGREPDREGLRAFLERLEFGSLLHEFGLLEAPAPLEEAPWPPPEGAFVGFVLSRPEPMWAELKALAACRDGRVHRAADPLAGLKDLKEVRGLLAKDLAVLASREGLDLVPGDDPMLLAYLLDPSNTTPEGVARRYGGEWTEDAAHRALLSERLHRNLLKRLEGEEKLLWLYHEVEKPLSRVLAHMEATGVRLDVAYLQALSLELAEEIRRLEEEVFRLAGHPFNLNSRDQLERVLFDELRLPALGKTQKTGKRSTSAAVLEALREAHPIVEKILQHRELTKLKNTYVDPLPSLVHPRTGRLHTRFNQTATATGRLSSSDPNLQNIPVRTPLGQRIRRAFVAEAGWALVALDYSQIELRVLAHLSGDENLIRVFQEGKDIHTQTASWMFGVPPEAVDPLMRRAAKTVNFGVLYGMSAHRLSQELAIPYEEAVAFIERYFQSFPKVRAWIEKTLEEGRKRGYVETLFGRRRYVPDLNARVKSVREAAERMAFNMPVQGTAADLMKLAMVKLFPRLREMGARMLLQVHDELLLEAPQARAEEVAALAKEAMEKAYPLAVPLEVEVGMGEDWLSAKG

| Compound | result of incorporation (termination / further chain extension) (delta Tts DNA polymerase) | primer extended by at least one base within assay time (grade) (delta Tts DNA polymerase) | primer extended by at least one base within assay time (grade) (MuLV RT) | result of incorporation (termination / further chain extension) (MuLV RT) | result of incorporation (termination / further chain extension) (Tth DNA polymerase) | primer extended by at least one base within assay time (grade) (Tth DNA polymerase) | primer extended by at least one base within assay time (grade) (SAV RT) | result of incorporation (termination / further chain extension) (SAV RT) | result of incorporation (termination / further chain extension) (Thermosequenase E) | primer extended by at least one base within assay time (grade) (Thermosequenase E) |
| --- | --- | --- | --- | --- | --- | --- | --- | --- | --- | --- |
| 4′-C-(Aminomethyl)thymidine triphosphate [compound (9)] | T | +++ | ++ (up to 75% of primer extended by at least one base within assay time) | E | T | ++ (up to 75% of primer extended by at least one base within assay time) | ++ (up to 75% of primer extended by at least one base within assay time) | E | T | ++ (up to 75% of primer extended by at least one base within assay time) |
| 4′-C-(Glycylaminomethyl)thymidine triphosphate [compound (6)] | T | +++ | ++ (up to 75% of primer extended by at least one base within assay time) | E | T | + (up to 50% of primer extended by at least one base within assay time) | + (up to 50% of primer extended by at least one base within assay time) | E? | T | ++ (up to 75% of primer extended by at least one base within assay time) |
| Cc1cn([C@H]2C[C@H](O)[C@@](CNC(=O)C(F)(F)F)(COP(=O)(O)OP(=O)(O)OP(=O)(O)O)O2)c(=O)[nH]c1=O [compound (8), 4′-C-(N-trifluoroacetylaminomethyl)thymidine triphosphate] | T | +++ | ++ (up to 75% of primer extended by at least one base within assay time) | E | T | ++ (up to 75% of primer extended by at least one base within assay time) | ++ (up to 75% of primer extended by at least one base within assay time) | E | T | ++ (up to 75% of primer extended by at least one base within assay time) |
